Source: PubChem BioAssay AID296 (DTP/NCI, 2004)
“And” between values parts separate entries of the source, which are not always exact repeats. Identical values can stand only once. Results filed as inconclusive are left out.

System: MX-1 breast xenograft, nude mice, tumor weight T/C
Experiment: NCI In Vivo Anticancer Drug Screen. Data for tumor model Human Mammary Carcinoma MX-1 Xenograft (intrarenal inoculation) in NU/NU Swiss (nude) mice
Conditions: endpoint: mean tumor weight change, higher = larger tumour
In short: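 Tumor-bearing mice were treated with test compound alongside a vehicle-treated control group. Survival or tumor size was measured, and activity is expressed as the treated-group value divided by the control-group value.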

[1] = dose: 150.0 mg/kg/injection, schedule: Q04DX003 (sc), vehicle: saline with Tween-80
[2] = dose: 300.0 mg/kg/injection, schedule: Q04DX003 (sc), vehicle: saline with Tween-80
[3] = dose: 300.0 mg/kg/injection, schedule: Q04DX003 (sc), vehicle: Klucel (hydroxypropylcellulose) (HPC)
[4] = dose: 600.0 mg/kg/injection, schedule: Q04DX003 (sc), vehicle: Klucel (hydroxypropylcellulose) (HPC)
[5] = dose: 1200.0 mg/kg/injection, schedule: Q04DX003 (sc), vehicle: Klucel (hydroxypropylcellulose) (HPC)
[6] = dose: 800.0 mg/kg/injection, schedule: Q01DX010 (sc), vehicle: Klucel (hydroxypropylcellulose) (HPC)
[7] = dose: 37.5 mg/kg/injection, schedule: Q04DX003 (sc), vehicle: saline with Tween-80
[8] = dose: 75.0 mg/kg/injection, schedule: Q04DX003 (sc), vehicle: saline with Tween-80
[9] = dose: 300.0 mg/kg/injection, schedule: Q04DX003 (sc), vehicle: saline
[10] = dose: 150.0 mg/kg/injection, schedule: Q04DX003 (sc), vehicle: Klucel (hydroxypropylcellulose) (HPC)
[11] = dose: 18.75 mg/kg/injection, schedule: Q04DX003 (sc), vehicle: Klucel (hydroxypropylcellulose) (HPC)
[12] = dose: 37.5 mg/kg/injection, schedule: Q04DX003 (sc), vehicle: Klucel (hydroxypropylcellulose) (HPC)

Cc1noc(N)c1N
T/C (dose: 300.0 mg/kg/injection, schedule: Q04DX003 (sc), vehicle: water): 102 % of control
T/C (dose: 600.0 mg/kg/injection, schedule: Q04DX003 (sc), vehicle: water): 97 % of control
T/C (dose: 1200.0 mg/kg/injection, schedule: Q04DX003 (sc), vehicle: water): 102 % of control
T/C (dose: 2400.0 mg/kg/injection, schedule: Q04DX003 (sc), vehicle: water): 92 % of control

ClCc1ccc2ccccc2n1
T/C [1]: 98 % of control
T/C [2]: 98 % of control
T/C (dose: 1200.0 mg/kg/injection, schedule: Q04DX003 (sc), vehicle: saline with Tween-80): 116 % of control

NC(=O)c1ncn(C2OC(CO)C(O)C2O)c1O (stereo unspecified)
T/C [3]: 73 % of control
T/C [4]: 95 % of control
T/C [5]: 98 % of control

C[CH2][Sn]([CH2]C)([O]S(C)(=O)=O)[O]S(C)(=O)=O
T/C (dose: 6.25 mg/kg/injection, schedule: Q04DX003 (sc), vehicle: saline with Tween-80): 83 % of control
T/C (dose: 12.5 mg/kg/injection, schedule: Q04DX003 (sc), vehicle: saline with Tween-80): 95 % of control
T/C (dose: 25.0 mg/kg/injection, schedule: Q04DX003 (sc), vehicle: saline with Tween-80): 95 % of control

C=C(NC(=O)C(=C)NC(=O)c1csc(C2=NC3c4csc(n4)C4NC(=O)c5csc(n5)C(C(C)(O)C(C)O)NC(=O)C5CSC(=N5)/C(=C/C)NC(=O)C(C(C)O)NC(=O)c5csc(n5)C3(CC2)NC(=O)C(C)NC(=O)C(=C)NC(=O)C(C)NC(=O)C(C(C)CC)NC2C=Cc3c(C(C)O)cc(nc3C2O)C(=O)OC4C)n1)C(N)=O (stereo unspecified)
T/C (dose: 400.0 mg/kg/injection, schedule: Q01DX010 (sc), vehicle: Klucel (hydroxypropylcellulose) (HPC)): 73 % of control
T/C [6]: 98 % of control
T/C (dose: 1600.0 mg/kg/injection, schedule: Q01DX010 (sc), vehicle: Klucel (hydroxypropylcellulose) (HPC)): 81 % of control
T/C (dose: 3200.0 mg/kg/injection, schedule: Q01DX010 (sc), vehicle: Klucel (hydroxypropylcellulose) (HPC)): 117 % of control

CCC[P+](c1ccccc1)(c1ccccc1)c1ccccc1
T/C (dose: 18.75 mg/kg/injection, schedule: Q04DX003 (sc), vehicle: saline with Tween-80): 100 % of control
T/C [7]: 73 % of control
T/C [8]: 62 % of control
T/C [1]: 54 % of control

C[n+]1ccc(Nc2ccc(NC(=O)c3ccc(Nc4cc[n+](C)c5ccc(N)cc45)cc3)cc2)cc1
T/C (dose: 50.0 mg/kg/injection, schedule: Q04DX003 (sc), vehicle: distilled water + Tween-80): 59 % of control

CCN(CC)CCCNc1nccc2c(C)c3[nH]c4ccncc4c3cc12
T/C (dose: 5.0 mg/kg/injection, schedule: Q01DX010 (sc), vehicle: other): 166 % of control
T/C (dose: 10.0 mg/kg/injection, schedule: Q01DX010 (sc), vehicle: other): 88 % of control

OCC12COCN1COC2
T/C [9]: 80 % of control
T/C (dose: 600.0 mg/kg/injection, schedule: Q04DX003 (sc), vehicle: saline): 102 % of control
T/C (dose: 1200.0 mg/kg/injection, schedule: Q04DX003 (sc), vehicle: saline): 109 % of control
T/C (dose: 2400.0 mg/kg/injection, schedule: Q04DX003 (sc), vehicle: saline): 122 % of control

CSc1ncc2ncn(C3OC(CO)C(O)C3O)c2n1 (stereo unspecified)
T/C [3]: 56 % of control
T/C [4]: 59 % of control
T/C [5]: 37 % of control
T/C (dose: 2400.0 mg/kg/injection, schedule: Q04DX003 (sc), vehicle: Klucel (hydroxypropylcellulose) (HPC)): 68 % of control

F[B-](F)(F)F
T/C (dose: 300.0 mg/kg/injection, schedule: Q04DX003 (sc), vehicle: gum acacia): 106 % of control
T/C (dose: 600.0 mg/kg/injection, schedule: Q04DX003 (sc), vehicle: gum acacia): 104 % of control
T/C (dose: 1200.0 mg/kg/injection, schedule: Q04DX003 (sc), vehicle: gum acacia): 70 % of control

COc1ccc2[nH]c3c(c2c1)CCNC3CC(C)CCC=C(C)C (stereo unspecified)
T/C (dose: 75.0 mg/kg/injection, schedule: Q04DX003 (sc), vehicle: Klucel (hydroxypropylcellulose) (HPC)): 114 % of control
T/C [10]: 119 % of control

CC(=O)C1(O)Cc2c(O)c3c(c(O)c2C(OC2CC(N)C(O)C(C)O2)C1)C(=O)c1ccccc1C3=O (stereo unspecified)
T/C (dose: 0.5 mg/kg/injection, schedule: Q04DX003 (sc), vehicle: water): 104 % of control
T/C (dose: 1.0 mg/kg/injection, schedule: Q04DX003 (sc), vehicle: water): 100 % of control

C[C@H](CCC[C@H](C)OS(=O)(=O)c1ccccc1)OS(=O)(=O)c1ccccc1
T/C [2]: 92 % of control
T/C (dose: 600.0 mg/kg/injection, schedule: Q04DX003 (sc), vehicle: saline with Tween-80): 48 % of control

COC1=CCC23C(=O)C=CC(=O)C2(C1)C(=O)c1ccccc1C3=O (stereo unspecified)
T/C (dose: 37.5 mg/kg/injection, schedule: Q04DX003 (ip), vehicle: saline with Tween-80): 109 % of control

N=C(N)CCCCCCCCC(=N)N
T/C (dose: 18.75 mg/kg/injection, schedule: Q04DX003 (sc), vehicle: saline): 124 % of control

CC(=O)[O][Pb]([O]C(C)=O)([c]1ccccc1)[c]1ccccc1
T/C (dose: 25.0 mg/kg/injection, schedule: Q01DX010 (sc), vehicle: Klucel (hydroxypropylcellulose) (HPC)): 105 % of control
T/C (dose: 50.0 mg/kg/injection, schedule: Q01DX010 (sc), vehicle: Klucel (hydroxypropylcellulose) (HPC)): 167 % of control
T/C (dose: 100.0 mg/kg/injection, schedule: Q01DX010 (sc), vehicle: Klucel (hydroxypropylcellulose) (HPC)): 122 % of control
T/C [6]: 51 % of control

CN(C)N=Nc1cccc(C(N)=O)c1
T/C (dose: 25.0 mg/kg/injection, schedule: Q04DX003 (sc), vehicle: Klucel (hydroxypropylcellulose) (HPC)): 100 % of control
T/C (dose: 50.0 mg/kg/injection, schedule: Q04DX003 (sc), vehicle: Klucel (hydroxypropylcellulose) (HPC)): 52 % of control and 59 % of control and 64 % of control
T/C [10]: 4 % of control

CCC[CH2][Hg][Cl]
T/C (dose: 9.38 mg/kg/injection, schedule: Q04DX003 (sc), vehicle: Klucel (hydroxypropylcellulose) (HPC)): 74 % of control
T/C [11]: 61 % of control
T/C [12]: 46 % of control

Clc1cc(Cl)c(C[N+]23CN4CN(CN(C4)C2)C3)cc1Cl
T/C [7]: 106 % of control
T/C [8]: 120 % of control
T/C [1]: 110 % of control
T/C [2]: 169 % of control

COc1c(C=O)c2c(c(OC)c1OC)-c1ccc(OC)c(=O)cc1[C@@H](NC(C)=O)CC2
T/C [11]: 20 % of control
T/C [12]: 11 % of control

O=P1(NCCCl)OCCCN1CCCl (stereo unspecified)
T/C (dose: 150.0 mg/kg/injection, schedule: Q04DX003 (sc), vehicle: saline): -95 % of control and -100 % of control
T/C [9]: -100 % of control

O=c1cc(CCl)[nH]nc1CCl
T/C (dose: 50.0 mg/kg/injection, schedule: Q01DX010 (sc), vehicle: saline with Tween-80): 77 % of control
T/C (dose: 100.0 mg/kg/injection, schedule: Q01DX010 (sc), vehicle: saline with Tween-80): 42 % of control

C=CS(=O)(=O)c1ccccc1
T/C (dose: 50.0 mg/kg/injection, schedule: Q01DX010 (sc), vehicle: saline): 91 % of control
T/C (dose: 100.0 mg/kg/injection, schedule: Q01DX010 (sc), vehicle: saline): 81 % of control

CC(=O)OCC1OC(n2ncc(=O)[nH]c2=O)C(OC(C)=O)C1OC(C)=O (stereo unspecified)
T/C (dose: 150.0 mg/kg/injection, schedule: Q04DX003 (sc), vehicle: suspension in saline): 67 % of control
T/C (dose: 300.0 mg/kg/injection, schedule: Q04DX003 (sc), vehicle: suspension in saline): 112 % of control
T/C (dose: 600.0 mg/kg/injection, schedule: Q04DX003 (sc), vehicle: suspension in saline): 78 % of control

CC(=O)OC1OC(=O)C(C)(C(C)=O)C1C (stereo unspecified)
T/C (dose: 5.0 mg/kg/injection, schedule: Q04DX003 (ip), vehicle: distilled water + alcohol): 85 % of control
T/C (dose: 10.0 mg/kg/injection, schedule: Q04DX003 (ip), vehicle: distilled water + alcohol): 109 % of control
T/C (dose: 20.0 mg/kg/injection, schedule: Q04DX003 (ip), vehicle: distilled water + alcohol): 35 % of control

O=C(Nc1ccccc1C(=O)O)c1cc([N+](=O)[O-])cc([N+](=O)[O-])c1
T/C (dose: 100.0 mg/kg/injection, schedule: Q04DX003 (sc), vehicle: saline with Tween-80): 101 % of control
T/C (dose: 200.0 mg/kg/injection, schedule: Q04DX003 (sc), vehicle: saline with Tween-80): 120 % of control

CC(=O)Oc1c(C)[nH]ccc1=O
T/C (dose: 200.0 mg/kg/injection, schedule: Q04DX003 (sc), vehicle: suspension in saline): 72 % of control
T/C (dose: 400.0 mg/kg/injection, schedule: Q04DX003 (sc), vehicle: suspension in saline): 87 % of control
T/C (dose: 800.0 mg/kg/injection, schedule: Q04DX003 (sc), vehicle: suspension in saline): 79 % of control
